Measured values from patent US20200031778A1, “NOVEL 5-SUBSTITUTED IMIDAZOLYLMETHYL DERIVATIVES” (Bayer CropScience Aktiengesellschaft, priority 2016, published 2020).

Assay: Log P by HPLC on reversed phase columns (EEC directive 79/831 Annex V.A8; methods [a], [b], [c])
Format: physicochemical
Summary of the method: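 Reversed-phase HPLC with LC-UV detection, 10→95% acetonitrile linear gradient; aqueous eluent 0.1% formic acid [a], 0.001 M ammonium acetate, neutral [b], or 0.1% phosphoric acid [c]. Calibrated against C3–C16 alkan-2-ones of known Log P by retention-time linear interpolation; multiple values within a method separated by "+".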

Structure (SMILES) | LogP
N#Cc1cncn1CC(O)(c1cnc(Cl)cc1Br)C1(F)CC1 (centres unmarked) [I-560] | 1.98^[a]
COc1nc(Cl)ccc1C(O)(Cn1cncc1C#N)C1(Cl)CC1 (centres unmarked) [I-561] | 2.51^[a]
N#Cc1cncn1CC(O)(c1cc(Cl)c(Cl)cc1Cl)C1(Cl)CC1 (centres unmarked) [I-562] | 2.98^[a]
N#Cc1cncn1CC(O)(c1c(F)cc(F)cc1Cl)C1(Cl)CC1 (centres unmarked) [I-563] | 2.45^[a]
N#Cc1cncn1CC(O)(c1c(Cl)ccc(Cl)c1F)C1(F)CC1 (centres unmarked) [I-564] | 2.39^[a]
N#Cc1cncn1CC(O)(c1c(F)ccc(Cl)c1Cl)C1(F)CC1 (centres unmarked) [I-565] | 2.39^[a]
N#Cc1cncn1CC(O)(c1c(F)cc(F)cc1Br)C1(Cl)CC1 (centres unmarked) [I-566] | 2.49^[a]
N#Cc1cncn1CC(O)(c1c(F)ccc(F)c1Cl)C1(F)CC1 (centres unmarked) [I-567] | 2.15^[a]
N#Cc1cncn1CC(O)(c1cc(F)cc(Cl)c1Cl)C1(F)CC1 (centres unmarked) [I-568] | 2.49^[a]
N#Cc1cncn1CC(O)(c1cc(F)cc(F)c1Cl)C1(F)CC1 (centres unmarked) [I-569] | 2.26^[a]
N#Cc1cncn1CC(O)(c1cc(Cl)cc(F)c1F)C1(F)CC1 (centres unmarked) [I-570] | 2.44^[a]
N#Cc1cncn1CC(O)(c1cc(Cl)cc(F)c1Cl)C1(F)CC1 (centres unmarked) [I-571] | 2.52^[a]
N#Cc1cncn1CC(O)(c1cc(Cl)cc(Cl)c1F)C1(F)CC1 (centres unmarked) [I-572] | 2.66^[a]
N#Cc1cncn1CC(O)(c1cc(Br)c(F)cc1F)C1(F)CC1 (centres unmarked) [I-573] | 2.47^[a]
N#Cc1cncn1CC(O)(c1c(F)cc(F)cc1Cl)C1(F)CC1 (centres unmarked) [I-574] | 2.23^[a]
N#Cc1cncn1CC(O)(c1cc(Cl)c(F)cc1Cl)C1(F)CC1 (centres unmarked) [I-575] | 2.54^[a]
N#Cc1cncn1CC(O)(c1cc(Cl)c(Cl)cc1Cl)C1(F)CC1 (centres unmarked) [I-576] | 2.82^[a]
N#Cc1cncn1CC(O)(c1cc(Cl)c(F)cc1F)C1(F)CC1 (centres unmarked) [I-577] | 2.42^[a]
N#Cc1cncn1CC(O)(c1cc(F)c(Cl)cc1Cl)C1(F)CC1 (centres unmarked) [I-578] | 2.59^[a]
N#Cc1cncn1CC(O)(c1cc(F)c(F)cc1Cl)C1(F)CC1 (centres unmarked) [I-579] | 2.32^[a]
N#Cc1cncn1CC(O)(c1cc(F)c(Cl)cc1F)C1(F)CC1 (centres unmarked) [I-580] | 2.45^[a]
N#Cc1cncn1CC(O)(c1cc(Cl)c(F)cc1Cl)C1(Cl)CC1 (centres unmarked) [I-581] | 2.70^[a]
N#Cc1cncn1CC(O)(c1cc(Br)c(F)cc1F)C1(Cl)CC1 (centres unmarked) [I-582] | 2.66^[a]
N#Cc1cncn1CC(O)(c1cc(F)c(Cl)cc1F)C1(Cl)CC1 (centres unmarked) [I-583] | 2.66^[a]

Structure (SMILES) | LogP
N#Cc1cncn1CC(O)(c1cc(F)c(F)cc1Cl)C1(Cl)CC1 (centres unmarked) [I-584] | 2.49^[a]
N#Cc1cncn1CC(O)(c1cc(F)c(Cl)cc1Cl)C1(Cl)CC1 (centres unmarked) [I-585] | 2.75^[a]
N#Cc1cncn1CC(O)(c1cc(Cl)c(F)cc1F)C1(Cl)CC1 (centres unmarked) [I-586] | 2.61^[a]
N#Cc1cncn1CC(O)(c1c(F)ccc(Cl)c1F)C1(F)CC1 (centres unmarked) [I-587] | 2.28^[a]
N#Cc1cncn1CC(O)(c1cc(F)cc(F)c1F)C1(F)CC1 (centres unmarked) [I-588] | 2.18^[a]
N#Cc1cncn1CC(O)(c1cc(Cl)c(Cl)cc1F)C1(F)CC1 (centres unmarked) [I-589] | 2.68^[a]
N#Cc1cncn1CC(O)(c1c(F)ccc(F)c1F)C1(F)CC1 (centres unmarked) [I-590] | 2.07^[a]
N#Cc1cncn1CC(O)(C#CCC1CCCCC1)C1CC1 (centres unmarked) [I-591] | 3.02^[a]
N#Cc1cncn1CC(O)(C#CCC1CCCCC1)C1CCC1 (centres unmarked) [I-592] | 3.51^[a]
N#Cc1cncn1CC(O)(C#CCC1CCCCC1)CC1CC1 (centres unmarked) [I-593] | 3.33^[a]
C[Si](C)(C#CC(O)(Cn1cncc1C#N)C1(Cl)CC1)c1ccccc1 (centres unmarked) [I-594] | 3.31^[a]
C[Si](C)(C#CC(O)(Cn1cncc1C#N)C1(F)CC1)c1ccccc1 (centres unmarked) [I-595] | 3.04^[a]
N#Cc1cncn1CC(O)(CCC1CCCC1)C1(Cl)CC1 (centres unmarked) [I-596] | 3.37^[a]
N#Cc1cncn1CC(O)(c1ccc(Cl)nc1Cl)C1(Cl)CC1 (centres unmarked) [I-597] | 2.12^[a]
N#Cc1cncn1CC(O)(CCC1CCCC1)C1(F)CC1 (centres unmarked) [I-598] | 3.00^[a]
CC(C)CCCC(O)(Cn1cncc1C#N)C1(Cl)CC1 (centres unmarked) [I-599] | 3.33^[a]
C[Si](C)(C)C#CC(O)(Cn1cncc1C#N)C1(F)CC1 (centres unmarked) [I-600] | 2.45^[a]
OC(C#CCC1CCCCC1)(Cn1cncc1C(F)(F)F)C1(Cl)CC1 (centres unmarked) [I-601] | 4.05^[a]
N#Cc1cncn1CC(O)(C#CC1CCc2ccccc21)C1(Cl)CC1 (centres unmarked) [I-602] | 2.92^[a]
OC(C#CC1CCCC1)(Cn1cncc1C(F)(F)F)C1(Cl)CC1 (centres unmarked) [I-603] | 3.37^[a]
N#Cc1cncn1CC(O)(C#CCC(Cl)CCl)C1(F)CC1 (centres unmarked) [I-604] | 2.08^[a]
N#Cc1cncn1CC(O)(C#CC1(c2ccc(F)cc2)CC1)C1(Cl)CC1 (centres unmarked) [I-605] | 2.98^[a]
N#Cc1cncn1CC(O)(C#CC1(c2ccccc2)CC1)C1(Cl)CC1 (centres unmarked) [I-606] | 2.90^[a]
C[Si](C)(C)C#CC(O)(Cn1cncc1C(F)(F)F)C1(Cl)CC1 (centres unmarked) [I-607] | 3.52^[a]

Structure (SMILES) | LogP
C[Si](C)(C)C#Cc1ccc(C(O)(Cn2cncc2C#N)C2(F)CC2)c(F)c1 (centres unmarked) [I-608] | 3.79^[a]
N#Cc1cncn1CC(O)(c1cc(Cl)cc(Cl)c1F)C1(Cl)CC1 (centres unmarked) [I-609] | 2.76^[a]
N#Cc1cncn1CC(O)(c1cc(F)cc(Cl)c1F)C1(Cl)CC1 (centres unmarked) [I-610] | 2.49^[a]
N#Cc1cncn1CC(O)(c1cc(Cl)cc(F)c1F)C1(Cl)CC1 (centres unmarked) [I-611] | 2.54^[a]
N#Cc1cncn1CC(O)(c1cc(Cl)cc(Cl)c1Cl)C1(F)CC1 (centres unmarked) [I-612] | 2.66^[a]
N#Cc1cncn1CC(O)(c1cc(F)cc(Cl)c1F)C1(F)CC1 (centres unmarked) [I-613] | 2.29^[a]
N#Cc1cncn1CC(O)(c1cc(Cl)cc(Cl)c1Cl)C1(Cl)CC1 (centres unmarked) [I-614] | 2.80^[a]
N#Cc1cncn1CC(O)(c1c(F)ccc(F)c1F)C1(Cl)CC1 (centres unmarked) [I-615] | 2.23^[a]
N#Cc1cncn1CC(O)(c1ccc(F)c(Br)c1F)C1(Cl)CC1 (centres unmarked) [I-616] | 2.54^[a]
N#Cc1cncn1CC(O)(c1ccc(Cl)c(F)c1Cl)C1(Cl)CC1 (centres unmarked) [I-617] | 2.64^[a]
N#Cc1cncn1CC(O)(c1ccc(F)c(Cl)c1Cl)C1(Cl)CC1 (centres unmarked) [I-618] | 2.58^[a]
N#Cc1cncn1CC(O)(c1cc(F)cc(F)c1Cl)C1(Cl)CC1 (centres unmarked) [I-619] | 2.33^[a]
N#Cc1cncn1CC(O)(c1cc(F)cc(F)c1F)C1(Cl)CC1 (centres unmarked) [I-620] | 2.29^[a]
N#Cc1cncn1CC(O)(c1cc(Cl)c(Cl)cc1F)C1(Cl)CC1 (centres unmarked) [I-621] | 2.80^[a]
N#Cc1cncn1CC(O)(c1c(F)ccc(Cl)c1F)C1(Cl)CC1 (centres unmarked) [I-622] | 2.47^[a]
N#Cc1cncn1CC(O)(c1cc(Cl)ccc1Cl)C1(F)CC1 (centres unmarked) [I-623] | 2.39^[a]
N#Cc1cncn1CC(O)(c1ccc(F)c(Cl)c1Cl)C1(F)CC1 (centres unmarked) [I-624] | 2.45^[a]
N#Cc1cncn1CC(O)(c1ccc(F)c(Br)c1F)C1(F)CC1 (centres unmarked) [I-625] | 2.35^[a]
N#Cc1cncn1CC(O)(c1ccc(F)c(F)c1F)C1(Cl)CC1 (centres unmarked) [I-626] | 2.37^[a]
N#Cc1cncn1CC(O)(c1ccc(F)c(Cl)c1F)C1(Cl)CC1 (centres unmarked) [I-627] | 2.52^[a]
N#Cc1cncn1CC(O)(c1ccc(F)c(F)c1Cl)C1(Cl)CC1 (centres unmarked) [I-628] | 2.41^[a]
N#Cc1cncn1CC(O)(c1ccc(Cl)c(F)c1F)C1(Cl)CC1 (centres unmarked) [I-629] | 2.60^[a]
N#Cc1cncn1CC(O)(c1ccc(Cl)c(Cl)c1F)C1(Cl)CC1 (centres unmarked) [I-630] | 2.76^[a]
N#Cc1cncn1CC(O)(c1cc(Br)ccc1F)C1(F)CC1 (centres unmarked) [I-631] | 2.31^[a]

Structure (SMILES) | LogP
N#Cc1cncn1CC(O)(c1cc(Br)ccc1F)C1(Cl)CC1 (centres unmarked) [I-632] | 2.49^[a]
N#Cc1cncn1CC(O)(c1cc(Br)ccc1Cl)C1(F)CC1 (centres unmarked) [I-633] | 2.45^[a]
N#Cc1cncn1CC(O)(c1ccc(F)c(F)c1F)C1(F)CC1 (centres unmarked) [I-634] | 2.18^[a]
N#Cc1cncn1CC(O)(c1ccc(F)c(Cl)c1F)C1(F)CC1 (centres unmarked) [I-635] | 2.35^[a]
N#Cc1cncn1CC(O)(c1ccc(F)c(F)c1Cl)C1(F)CC1 (centres unmarked) [I-636] | 2.25^[a]
N#Cc1cncn1CC(O)(c1ccc(Cl)c(F)c1F)C1(F)CC1 (centres unmarked) [I-637] | 2.41^[a]
N#Cc1cncn1CC(O)(c1ccc(Cl)c(Cl)c1F)C1(F)CC1 (centres unmarked) [I-638] | 2.58^[a]
N#Cc1cncn1CC(O)(c1ccc(C#CC2CC2)cc1Cl)C1(F)CC1 (centres unmarked) [I-639] | 3.03^[a]
N#Cc1cncn1CC(O)(c1ccc(C#CC2CCCC2)cc1Cl)C1(F)CC1 (centres unmarked) [I-640] | 4.01^[a]
CCCC#Cc1ccc(C(O)(Cn2cncc2C#N)C2(F)CC2)c(Cl)c1 (centres unmarked) [I-641] | 3.52^[a]
CC(C)(C)C#Cc1ccc(C(O)(Cn2cncc2C#N)C2(F)CC2)c(Cl)c1 (centres unmarked) [I-642] | 3.83^[a]
N#Cc1cncn1CC(O)(c1ccc(C#CC2CC2)cc1F)C1(F)CC1 (centres unmarked) [I-643] | 2.92^[a]
N#Cc1cncn1CC(O)(c1ccc(C#CC2CCCC2)cc1F)C1(F)CC1 (centres unmarked) [I-644] | 3.74^[a]
CCCC#Cc1ccc(C(O)(Cn2cncc2C#N)C2(F)CC2)c(F)c1 (centres unmarked) [I-645] | 3.29^[a]
CC(C)(C)C#Cc1ccc(C(O)(Cn2cncc2C#N)C2(F)CC2)c(F)c1 (centres unmarked) [I-646] | 3.57^[a]
C#Cc1ccc(C(O)(Cn2cncc2C#N)C2(F)CC2)c(F)c1 (centres unmarked) [I-647] | 2.21^[a]
N#Cc1cncn1CC(O)(c1ccc(Br)cc1Cl)C1(Cl)CC1 (centres unmarked) [I-648] | 2.70^[a]
N#Cc1cncn1CC(O)(c1ccc(C#CC2CCCC2)cc1F)C1(Cl)CC1 (centres unmarked) [I-649] | 3.99^[a]
C[Si](C)(C)C#Cc1ccc(C(O)(Cn2cncc2C#N)C2(Cl)CC2)c(F)c1 (centres unmarked) [I-650] | 4.03^[a]
N#Cc1cncn1CC(O)(c1ccc(C#CC2CC2)cc1F)C1(Cl)CC1 (centres unmarked) [I-651] | 3.11^[a]
CCCC#Cc1ccc(C(O)(Cn2cncc2C#N)C2(Cl)CC2)c(F)c1 (centres unmarked) [I-652] | 3.48^[a]
CC(C)(C)C#Cc1ccc(C(O)(Cn2cncc2C#N)C2(Cl)CC2)c(F)c1 (centres unmarked) [I-653] | 3.79^[a]
C#CC(O)(Cn1cncc1C#N)C1(F)CC1 (centres unmarked) [I-654] | 1.11^[a]
